Data reported in patent publication US10624897B2, “Chlorobenzene substituted azaaryl compounds” (TAIPEI MEDICAL UNIVERSITY, priority 2015, dated 2020).

Assays:
RT-112 cells = experiment: Cell cycle distribution by flow cytometry; type: cell-based; details: FIG. 3A; for accumulation of the sub-G1 phase (apoptotic cell death): 48 h to 72 h
HCT-116 = experiment: MTT assay, cell viability; type: cell-based; details: Homo sapiens; HCT-116, Colorectal, 72 hours; read-out: IC50 (μM, Mean ± SD)
Protocol: (§1) Cells were cultured in RPMI-1640 (RT-112, KMS-11, SNU-16, HT-29, HCT-116, NCI—H520, Hep3B, PLC/PRF/5, HL-60, MOLT-4) and DMEM (HepG2, MCF-7, MDA-MB-231) with 10% FBS (v/v) and Penicillin/Streptomycin (100 U/ml). FU-DDLS-1 cell line was maintained in DMEM:F12 medium with 10% FBS. LiSa-2 cell line was maintained in IMDM/RPMI-1640 in a 4:1 ratio supplemented with 10% FBS, 2 mmol/L L-glutamine, and 0.1 mg/mL gentamicin. Human umbilical vein endothelial cells (HUVECs) were grown to confluence on 1% collagen, and maintained in 90% Medium 199 with 25 U/ml heparin, 30 μg/ml endothelial cell growth supplement (ECGS) adjusted to contain 1.5 g/L sodium bicarbonate, 10% FBS and Penicillin/Streptomycin (100 U/ml) Cultures were maintained at 37° C. in a humidified atmosphere of 5% CO2/95% air.
(§2) Cells were seeded in 96-well plates (5,000 cells/well) and incubated overnight for attachment, and were then treated with indicated agents in 10% FBS-supplemented medium for 72 hours. The medium was replaced with MTT (0.5 mg/mL) at 37° C. for 1 hours. After removal of medium, the cells were lysed with 100 μL per well dimethyl sulfoxide (DMSO), and absorbance at 550 nm was measured with microplate reader. The relative cell viability (%) was expressed as a percentage relative to a DMSO control cells.

PLC/PRF/5 = experiment: MTT assay, cell viability; type: cell-based; details: 72 hours
Protocol: as §1, §2

Hep3B = experiment: MTT assay, cell viability; type: cell-based; details: 72 hours
Protocol: as §1, §2

HepG2 = experiment: MTT assay, cell viability; type: cell-based; details: Homo sapiens; HepG2, Liver, 72 hours; read-out: IC50 (μM, Mean ± SD)
Protocol: as §1, §2

KMS-11 = experiment: MTT assay, cell viability; type: cell-based; details: Homo sapiens; KMS-11, Myeloma, 72 hours; read-out: IC50 (μM, Mean ± SD)
Protocol: as §1, §2

MDA-MB-231 = experiment: MTT assay, cell viability; type: cell-based; details: Homo sapiens; MDA-MB-231, Breast, 72 hours; read-out: IC50 (μM, Mean ± SD)
Protocol: as §1, §2

LISA-2 = experiment: MTT assay, cell viability; type: cell-based; details: LISA-2, Sarcoma, 72 hours; read-out: IC50 (μM, Mean ± SD)
Protocol: as §1, §2

RT-112 = experiment: MTT assay, cell viability; type: cell-based; details: 72 hours
Protocol: as §1, §2

MCF-7 = experiment: MTT assay, cell viability; type: cell-based; details: Homo sapiens, MCF7; MCF-7, Breast, 72 hours; read-out: IC50 (μM, Mean ± SD)
Protocol: as §1, §2

FUDDLS = experiment: MTT assay, cell viability; type: cell-based; details: Sarcoma, 72 hours, read-out: IC50 (μM, Mean ± SD)
Protocol: as §1, §2

HT-29 = experiment: MTT assay, cell viability; type: cell-based; details: Homo sapiens; HT-29, Colorectal, 72 hours; read-out: IC50 (μM, Mean ± SD)
Protocol: as §1, §2

RT-112 tumor xenografts = details: 5 mg/kg/wk, i.p., nude mice
Protocol: Eight-week-old female athymic nude mice were group-housed in the TMU Laboratory Animal Center (Taipei, Taiwan) under conditions of constant photoperiod (12 h light/12 h dark at 21-0023° C. and 60-85% humidity) with ad libitum access to sterilized food and water. […] Tumors were measured weekly using calipers. Tumor volume (mm3) was calculated from w2×½ (w=width, 1=length in mm of the tumor).

SNU-16 = experiment: MTT assay, cell viability; type: cell-based; details: 72 hours
Protocol: as §1, §2

Row | Compound | Viability (% of control cells) PLC5 (5 uM) Mean (PLC/PRF/5) | Viability (% of control cells) Hep3B (5 uM) Mean (Hep3B) | Viability (% of control cells) SNU-16 (5 uM) Mean (SNU-16) | Viability (% of control cells) RT-112 (5 uM) Mean (RT-112) | Viability (% of control cells) RT-112 (10 uM) Mean (RT-112) | further results
1 | CCN1CCN(c2ccc(Nc3cc(N(C)C(=O)Nc4c(Cl)c(OC)cc(OC)c4Cl)ncn3)cc2)CC1 [BGJ-398, 3-(2,6-Dichloro-3,5-dimethoxy-phenyl)-1-{6-[4-(4-ethylpiperazin-1-yl)-phenylamino]-pyrimidin-4-yl}-1-methyl-urea] | – | – | – | – | – | G0/G1 cell cycle arrest (RT-112 cells; 24 h): also observed; accumulation of the sub-G1 phase (apoptotic cell death) (RT-112 cells): induced pronounced apoptosis; IC50 (HCT-116): 3.98 ± 0.06 µM; IC50 (PLC/PRF/5; Homo sapiens, PLC/PRF/5, Liver, read-out: IC50 (μM, Mean ± SD)): 2.94 ± 0.11 µM; IC50 (Hep3B; Homo sapiens, Liver, read-out: IC50 (μM, Mean ± SD)): 0.72 ± 0.12 µM; IC50 (HepG2): 5.84 ± 0.25 µM; IC50 (KMS-11): 0.2 ± 0.05 µM; IC50 (MDA-MB-231): 4.27 ± 0.83 µM; IC50 (LISA-2): 6.13 ± 0.06 µM; IC50 (RT-112; Homo sapiens, RT-112, Bladder, read-out: IC50 (μM, Mean ± SD)): 1.7 ± 0.05 µM; IC50 (MCF-7): 5.07 ± 0.63 µM; IC50 (FUDDLS): 1.45 ± 0.17 µM; IC50 (HT-29): 4.77 ± 0.14 µM
2 | N.N.[Cl][Pt][Cl] [Cisplatin, reference compound] | – | – | – | – | – | Tumor growth inhibition (%) (RT-112 tumor xenografts): 56.3%
3 | CCN1CCN(c2ccc(Nc3cc(N(C)C(=O)Nc4c(Cl)c(OC)c(Cl)c(OC)c4Cl)ncn3)cc2)CC1 [MPT0L090, 1-(6-((4-(4-ethylpiperazin-1-yl)phenyl)amino)pyrimidin-4-yl)-1-methyl-3-(2,4,6-trichloro-3,5-dimethoxyphenyl)urea] | 72.6 % of control cells | 47.1 % of control cells | 27.5 % of control cells | 52.6 % of control cells | 12.7 % of control cells | –
4 | CCN1CCN(c2ccc(Nc3cc(N(C)C(=O)Nc4c(Cl)c(OC)c(Cl)c(OC)c4Cl)nc(-c4ccccc4)n3)cc2)CC1 [MPT0L146, 1-(6-((4-(4-ethylpiperazin-1-yl)phenyl)amino)-2-phenylpyrimidin-4-yl)-1-methyl-3-(2,4,6-trichloro-3,5-dimethoxyphenyl)urea] | 88.0 % of control cells | 94.3 % of control cells | 83.4 % of control cells | 100.8 % of control cells | 29.7 % of control cells | –
5 | COc1c(Cl)c(NC(=O)N(C)c2cc(-c3cccnc3)ncn2)c(Cl)c(OC)c1Cl [MPT0L147, 1-methyl-1-(6-(pyridin-3-yl)pyrimidin-4-yl)-3-(2,4,6-trichloro-3,5-dimethoxyphenyl)urea] | – | – | – | – | 85.0 % of control cells | –
6 | COc1c(Cl)c(NC(=O)N(C)c2cc(-c3ccncc3)ncn2)c(Cl)c(OC)c1Cl [MPT0L148, 1-methyl-1-(6-(pyridin-4-yl)pyrimidin-4-yl)-3-(2,4,6-trichloro-3,5-dimethoxyphenyl)urea] | – | – | – | – | 89.3 % of control cells | –
7 | COc1c(Cl)c(NC(=O)N(C)c2cc(-c3ccccc3)ncn2)c(Cl)c(OC)c1Cl [MPT0L149, 1-methyl-1-(6-phenylpyrimidin-4-yl)-3-(2,4,6-trichloro-3,5-dimethoxyphenyl)urea] | – | – | – | – | 82.3 % of control cells | –
8 | COc1c(Cl)c(NC(=O)N(C)c2cc(-c3cccc(C#N)c3)ncn2)c(Cl)c(OC)c1Cl [MPT0L150, 1-(6-(3-cyanophenyl)pyrimidin-4-yl)-1-methyl-3-(2,4,6-trichloro-3,5-dimethoxyphenyl)urea] | – | – | – | – | 75.0 % of control cells | –
9 | COc1c(Cl)c(NC(=O)N(C)c2cc(-c3cccc([N+](=O)[O-])c3)ncn2)c(Cl)c(OC)c1Cl [MPT0L151, 1-methyl-1-(6-(3-nitrophenyl)pyrimidin-4-yl)-3-(2,4,6-trichloro-3,5-dimethoxyphenyl)urea] | – | – | – | – | 63.8 % of control cells | –
10 | COc1c(Cl)c(NC(=O)N(C)c2cc(-c3ccc(C#N)cc3)ncn2)c(Cl)c(OC)c1Cl [MPT0L152, 1-(6-(4-cyanophenyl)pyrimidin-4-yl)-1-methyl-3-(2,4,6-trichloro-3,5-dimethoxyphenyl)urea] | – | – | – | – | 55.3 % of control cells | –
11 | COc1ccc(-c2cc(N(C)C(=O)Nc3c(Cl)c(OC)c(Cl)c(OC)c3Cl)ncn2)cc1 [MPT0L153, 1-(6-(4-methoxyphenyl)pyrimidin-4-yl)-1-methyl-3-(2,4,6-trichloro-3,5-dimethoxyphenyl)urea] | 91.3 % of control cells | 93.6 % of control cells | 76.2 % of control cells | 63.8 % of control cells | 43.0 % of control cells | –
12 | COc1c(Cl)c(NC(=O)N(C)c2cc(-c3ccco3)ncn2)c(Cl)c(OC)c1Cl [MPT0L154, 1-(6-(furan-2-yl)pyrimidin-4-yl)-1-methyl-3-(2,4,6-trichloro-3,5-dimethoxyphenyl)urea] | – | – | – | – | 76.1 % of control cells | –
13 | COc1c(Cl)c(NC(=O)N(C)c2cc(-c3ccc(F)cc3)ncn2)c(Cl)c(OC)c1Cl [MPT0L155, 1-(6-(4-fluorophenyl)pyrimidin-4-yl)-1-methyl-3-(2,4,6-trichloro-3,5-dimethoxyphenyl)urea] | 55.3 % of control cells | 72.8 % of control cells | 80.5 % of control cells | 92.6 % of control cells | 44.4 % of control cells | –
14 | COc1c(Cl)c(NC(=O)N(C)c2cc(-c3ccc(Cl)cc3)ncn2)c(Cl)c(OC)c1Cl [MPT0L156, 1-(6-(4-chlorophenyl)pyrimidin-4-yl)-1-methyl-3-(2,4,6-trichloro-3,5-dimethoxyphenyl)urea] | 44.4 % of control cells | 54.3 % of control cells | 76.7 % of control cells | 98.3 % of control cells | 34.8 % of control cells | –
15 | CCN1CCN(c2ccc(-c3cc(N(C)C(=O)Nc4c(Cl)c(OC)c(Cl)c(OC)c4Cl)ncn3)cc2)CC1 [MPT0L182, 1-(6-(4-(4-ethylpiperazin-1-yl)phenyl)pyrimidin-4-yl)-1-methyl-3-(2,4,6-trichloro-3,5-dimethoxyphenyl)urea] | 78.3 % of control cells | 96.3 % of control cells | 63.2 % of control cells | 95.6 % of control cells | 8.6 % of control cells | –
16 | CCN1CCN(c2ccc(Nc3nc(Cl)nc(N(C)C(=O)Nc4c(Cl)c(OC)c(Cl)c(OC)c4Cl)n3)cc2)CC1 [MPT0L183, 1-(4-chloro-6-((4-(4-ethylpiperazin-1-yl)phenyl)amino)-1,3,5-triazin-2-yl)-1-methyl-3-(2,4,6-trichloro-3,5-dimethoxyphenyl)urea] | 45.0 % of control cells | 43.3 % of control cells | 28.2 % of control cells | 15.8 % of control cells | 3.4 % of control cells | –
17 | CC(=O)O[C@H]1C(=O)[C@@]2(C)[C@H]([C@H](OC(=O)c3ccccc3)[C@]3(O)C[C@H](OC(=O)[C@H](O)[C@@H](NC(=O)c4ccccc4)c4ccccc4)C(C)=C1C3(C)C)[C@]1(OC(C)=O)CO[C@@H]1C[C@@H]2O [paclitaxel] | – | – | – | – | – | accumulation of the sub-G1 phase (apoptotic cell death) (RT-112 cells): induced pronounced apoptosis
